# Patent US20090247559A1 (Exelixis, Inc., priority 2007, published 2009)
# Key:
# [1] = molecular target: PIM (PIM-1, PIM-2, and/or PIM-3); assay: PIM-1, PIM-2 and PIM-3 inhibition, biochemical chemiluminescence assays (Kinase Glo, IC50 determination); details: Table 1 activity class; PIM refers to PIM-1, PIM-2, and/or PIM-3; read-out: PIM IC50 (Activity B)
# CK2 = CK2 (Homo sapiens, UniProt P68400); assay: CK2 inhibition, biochemical chemiluminescence holoenzyme assay (Kinase Glo, IC50 determination); details: Table 1 activity class; symbol given only if active; read-out: CK2 IC50 (Activity C)
# Outline: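 Holoenzyme CK2 assay; compounds pre-incubated with substrate and enzyme, then reacted 150 min at 24-27° C. Remaining ATP measured as luminescence with Kinase Glo, and IC50 derived from the signal.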
# CK2, sequence (P68400 whole entry): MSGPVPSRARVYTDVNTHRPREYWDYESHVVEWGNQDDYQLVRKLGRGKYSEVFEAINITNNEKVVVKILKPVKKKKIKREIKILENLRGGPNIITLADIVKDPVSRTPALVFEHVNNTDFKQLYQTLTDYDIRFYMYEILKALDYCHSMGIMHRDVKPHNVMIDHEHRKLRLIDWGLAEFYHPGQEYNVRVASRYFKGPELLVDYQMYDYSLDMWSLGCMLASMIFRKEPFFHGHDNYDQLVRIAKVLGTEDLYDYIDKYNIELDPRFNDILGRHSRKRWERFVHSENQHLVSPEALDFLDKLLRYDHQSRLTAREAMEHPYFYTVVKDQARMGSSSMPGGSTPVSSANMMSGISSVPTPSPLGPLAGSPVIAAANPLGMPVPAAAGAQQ
# CK2, sequence (P67870 whole entry partner): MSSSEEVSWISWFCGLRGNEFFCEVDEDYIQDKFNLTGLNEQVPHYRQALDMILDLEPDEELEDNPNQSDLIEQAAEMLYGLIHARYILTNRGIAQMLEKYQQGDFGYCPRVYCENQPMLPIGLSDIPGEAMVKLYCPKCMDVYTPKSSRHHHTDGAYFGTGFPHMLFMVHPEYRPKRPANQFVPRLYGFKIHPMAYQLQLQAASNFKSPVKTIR
Structure (SMILES),IC50 [1],IC50 (CK2)
"COc1cccc(CCNc2ccc3oc4c(=O)[nH]c(CN5CC[C@H](O)C5)nc4c3c2)c1OC [Compound 445, 8-({2-[2,3-bis(methyloxy)phenyl]ethyl}amino)-2-{[(3S)-3-hydroxypyrrolidin-1-yl]methyl}[1]benzofuro[3,2-d]pyrimidin-4(3H)-one]",< 10 µM,< 10 µM
"O=c1[nH]c(-c2ccccc2C(F)(F)F)nc2c1oc1ccc(Br)cc12 [Compound 65, 8-bromo-2-[2-(trifluoromethyl)phenyl][1]benzofuro[3,2-d]pyrimidin-4(3H)-one]",< 10 µM,< 10 µM
"O=c1[nH]c(CN2CC[C@H](O)C2)nc2c1oc1ccc(C#CCCCCO)cc12 [Compound 456, 8-(6-hydroxyhex-1-yn-1-yl)-2-{[(3S)-3-hydroxypyrrolidin-1-yl]methyl}[1]benzofuro[3,2-d]pyrimidin-4(3H)-one]",< 10 µM,< 10 µM
"CCN1CCN(Cc2nc3c(oc4ccc(Br)cc43)c(=O)[nH]2)CC1 [Compound 150, 8-bromo-2-[(4-ethylpiperazin-1-yl)methyl][1]benzofuro[3,2-d]pyrimidin-4(3H)-one]",< 10 µM,< 10 µM
"O=c1[nH]c(-c2cccc(Cl)c2)nc2c1oc1ccc(Br)cc12 [Compound 93, 8-Bromo-2-(3-chlorophenyl)[1]benzofuro[3,2-d]pyrimidin-4(3H)-one]",< 10 µM,< 10 µM
"Cc1cc(C(=O)Nc2ccc(-c3nc4c(oc5ccc(Br)cc54)c(=O)[nH]3)c(Cl)c2)cc(Cl)n1 [Compound 274, N-[4-(8-bromo-4-oxo-3,4-dihydro[1]benzofuro[3,2-d]pyrimidin-2-yl)-3-chlorophenyl]-2-chloro-6-methylpyridine-4-carboxamide]",< 10 µM,< 10 µM
"COc1ccc(Br)c(-c2nc3c(oc4ccc(Br)cc43)c(=O)[nH]2)c1 [Compound 78, 8-bromo-2-[2-bromo-5-(methyloxy)phenyl][1]benzofuro[3,2-d]pyrimidin-4(3H)-one]",< 10 µM,< 10 µM
"O=c1[nH]c(CNCc2ccccc2)nc2c1oc1ccc(Br)cc12 [Compound 239, 8-bromo-2-{[(phenylmethyl)amino]methyl}[1]benzofuro[3,2-d]pyrimidin-4(3H)-one]",< 10 µM,< 10 µM
"O=c1[nH]c(NCCO)nc2c1oc1ccc(Br)cc12 [Compound 309, 8-Bromo-2-[(2-hydroxyethyl)amino][1]benzofuro[3,2-d]pyrimidin-4(3H)-one]",< 10 µM,< 10 µM
"CCOC(=O)Cc1ccc2oc3c(=O)[nH]c(CN4CC[C@H](O)C4)nc3c2c1 [Compound 491, ethyl (2-{[(3S)-3-hydroxypyrrolidin-1-yl]methyl}-4-oxo-3,4-dihydro[1]benzofuro[3,2-d]pyrimidin-8-yl)acetate]",< 10 µM,< 10 µM
"O=C(Nc1ccc(Cl)c(-c2nc3c(oc4ccc(Br)cc43)c(=O)[nH]2)c1)c1ccncc1 [Compound 314, N-[3-(8-bromo-4-oxo-3,4-dihydro[1]benzofuro[3,2-d]pyrimidin-2-yl)-4-chlorophenyl]pyridine-4-carboxamide]",< 10 µM,< 10 µM
"Nc1cccc(-c2nc3c(oc4ccc(Br)cc43)c(=O)[nH]2)c1 [Compound 355, 2-(3-Aminophenyl)-8-bromo[1]benzofuro[3,2-d]pyrimidin-4(3H)-one]",< 10 µM,< 10 µM
"O=c1[nH]c(NC2CCNCC2)nc2c1oc1ccc(Br)cc12 [Compound 213, 8-bromo-2-(piperidin-4-ylamino)[1]benzofuro[3,2-d]pyrimidin-4(3H)-one]",< 10 µM,< 10 µM
"O=C(CCc1c[nH]cn1)Nc1ccc(-c2nc3c(oc4ccc(Br)cc43)c(=O)[nH]2)c(Cl)c1 [Compound 162, N-[4-(8-bromo-4-oxo-3,4-dihydro[1]benzofuro[3,2-d]pyrimidin-2-yl)-3-chlorophenyl]-3-(1H-imidazol-4-yl)propanamide]",< 10 µM,< 10 µM
"O=c1[nH]c(CN2CC[C@H](O)C2)nc2c1oc1ccc(NCCc3cccc(F)c3)cc12 [Compound 472, 8-{[2-(3-fluorophenyl)ethyl]amino}-2-{[(3S)-3-hydroxypyrrolidin-1-yl]methyl}[1]benzofuro[3,2-d]pyrimidin-4(3H)-one]",< 10 µM,< 10 µM
"O=c1[nH]c(CN2CCN(c3cccnc3)CC2)nc2c1oc1ccc(Br)cc12 [Compound 240, 8-bromo-2-[(4-pyridin-3-ylpiperazin-1-yl)methyl][1]benzofuro[3,2-d]pyrimidin-4(3H)-one]",< 10 µM,< 10 µM
"COc1ccccc1CNc1ccc2oc3c(=O)[nH]c(CN4CC[C@H](O)C4)nc3c2c1 [Compound 466, 2-{[(3S)-3-hydroxypyrrolidin-1-yl]methyl}-8-({[2-(methyloxy)phenyl]methyl}amino)[1]benzofuro[3,2-d]pyrimidin-4(3H)-one]",< 10 µM,< 10 µM
"O=c1[nH]c(N2CCCC2)nc2c1oc1ccc(Br)cc12 [Compound 196, 8-bromo-2-pyrrolidin-1-yl[1]benzofuro[3,2-d]pyrimidin-4(3H)-one]",< 10 µM,< 10 µM

Structure (SMILES),IC50 [1],IC50 (CK2)
"CC(C)(NCc1nc2c(oc3ccc(Br)cc32)c(=O)[nH]1)C(N)=O [Compound 177, N-2-[(8-bromo-4-oxo-3,4-dihydro[1]benzofuro[3,2-d]pyrimidin-2-yl)methyl]-2-methylalaninamide]",< 10 µM,< 10 µM
"CN(C)c1ccc(-c2nc3c(oc4ccc(Br)cc43)c(=O)[nH]2)c(Cl)c1 [Compound 41, 8-bromo-2-[2-chloro-4-(dimethylamino)phenyl][1]benzofuro[3,2-d]pyrimidin-4(3H)-one]",< 10 µM,< 10 µM
"COc1cccc(CNCc2nc3c(oc4ccc(Br)cc43)c(=O)[nH]2)c1 [Compound 255, 8-bromo-2-[({[3-(methyloxy)phenyl]methyl}amino)methyl][1]benzofuro[3,2-d]pyrimidin-4(3H)-one]",< 10 µM,< 10 µM
"Cn1nc(OC2CCNCC2)cc1-c1nc2c(oc3ccc(Br)cc32)c(=O)[nH]1 [Compound 351, 8-Bromo-2-[1-methyl-3-(piperidin-4-yloxy)-1H-pyrazol-5-yl][1]benzofuro[3,2-d]pyrimidin-4(3H)-one]",< 10 µM,< 10 µM
"O=c1[nH]c(-c2ccc(Cl)s2)nc2c1oc1ccc(Br)cc12 [Compound 69, 8-bromo-2-(5-chloro-2-thienyl)[1]benzofuro[3,2-d]pyrimidin-4(3H)-one]",< 10 µM,< 10 µM
"Cc1cc(N)ccc1-c1nc2c(oc3ccc(Br)cc32)c(=O)[nH]1 [Compound 50, 2-(4-amino-2-methylphenyl)-8-bromo[1]benzofuro[3,2-d]pyrimidin-4(3H)-one]",< 10 µM,< 10 µM
"CN1CCC(N2CCN(c3nc4c(oc5ccc(Br)cc54)c(=O)[nH]3)CC2)CC1 [Compound 228, 8-bromo-2-[4-(1-methylpiperidin-4-yl)piperazin-1-yl][1]benzofuro[3,2-d]pyrimidin-4(3H)-one]",< 10 µM,< 10 µM
"O=C(Nc1ccc(-c2nc3c(oc4ccc(Br)cc43)c(=O)[nH]2)c(Cl)c1)c1cccnc1 [Compound 292, N-[4-(8-bromo-4-oxo-3,4-dihydro[1]benzofuro[3,2-d]pyrimidin-2-yl)-3-chlorophenyl]pyridine-3-carboxamide]",< 10 µM,< 10 µM
"O=C(Nc1ccc(Cl)c(-c2nc3c(oc4ccc(Br)cc43)c(=O)[nH]2)c1)c1ccoc1 [Compound 342, N-[3-(8-bromo-4-oxo-3,4-dihydro[1]benzofuro[3,2-d]pyrimidin-2-yl)-4-chlorophenyl]furan-3-carboxamide]",< 10 µM,< 10 µM
"Nc1ccc(-c2nc3c(oc4ccc(Br)cc43)c(=O)[nH]2)cc1 [Compound 354, 2-(4-Aminophenyl)-8-bromo[1]benzofuro[3,2-d]pyrimidin-4(3H)-one]",< 10 µM,< 10 µM
"CC(=O)N[C@H]1CCN(Cc2nc3c(oc4ccc(Br)cc43)c(=O)[nH]2)C1 [Compound 365, N-{(3S)-1-[(8-bromo-4-oxo-3,4-dihydro[1]benzofuro[3,2-d]pyrimidin-2-yl)methyl]pyrrolidin-3-yl}acetamide]",< 10 µM,< 10 µM
"O=c1[nH]c(CNc2ccccc2)nc2c1oc1ccc(Br)cc12 [Compound 16, 8-bromo-2-[(phenylamino)methyl][1]benzofuro[3,2-d]pyrimidin-4(3H)-one]",< 10 µM,< 10 µM
"O=c1[nH]c(-c2ccccn2)nc2c1oc1ccc(Br)cc12 [Compound 57, 8-Bromo-2-pyridin-2-yl[1]benzofuro[3,2-d]pyrimidin-4(3H)-one]",< 10 µM,< 10 µM
"CC(=O)N1CCN(Cc2nc3c(oc4ccc(Br)cc43)c(=O)[nH]2)CC1 [Compound 187, 2-[(4-acetylpiperazin-1-yl)methyl]-8-bromo[1]benzofuro[3,2-d]pyrimidin-4(3H)-one]",< 10 µM,< 10 µM
"O=c1[nH]c(-c2ccc(OCC3CNCCO3)cc2)nc2c1oc1ccc(Br)cc12 (stereo not shown) [Compound 359, 8-Bromo-2-{4-[(morpholin-2-ylmethyl)oxy]phenyl}[1]benzofuro[3,2-d]pyrimidin-4(3H)-one]",< 10 µM,< 10 µM
"NCCN1CCC(Cc2nc3c(oc4ccc(Br)cc43)c(=O)[nH]2)CC1 [Compound 168, 2-{[1-(2-aminoethyl)piperidin-4-yl]methyl}-8-bromo[1]benzofuro[3,2-d]pyrimidin-4(3H)-one]",< 10 µM,< 10 µM
"CN(C)CCN1CCN(c2nc3c(oc4ccc(Br)cc43)c(=O)[nH]2)CC1 [Compound 227, 8-bromo-2-{4-[2-(dimethylamino)ethyl]piperazin-1-yl}[1]benzofuro[3,2-d]pyrimidin-4(3H)-one]",< 10 µM,< 10 µM
